In patent US10258602B2 (Ocera Therapeutics, Inc., priority 2007, dated 2019):
Read-outs that look alike come from different tables or passages of the source.

Assays:
[1] = biological target: T1, CYP2A6 (Homo sapiens, UniProt P11509); test: Cytochrome P450 inhibition, CYP2A6; type: in vitro ADME; settings: read-out: IC50 2A6
T1 construct: purchased BD Gentest, Becton-Dickinson (Supersomes); host or cells: insect cells
T1 sequence (P11509 1-494): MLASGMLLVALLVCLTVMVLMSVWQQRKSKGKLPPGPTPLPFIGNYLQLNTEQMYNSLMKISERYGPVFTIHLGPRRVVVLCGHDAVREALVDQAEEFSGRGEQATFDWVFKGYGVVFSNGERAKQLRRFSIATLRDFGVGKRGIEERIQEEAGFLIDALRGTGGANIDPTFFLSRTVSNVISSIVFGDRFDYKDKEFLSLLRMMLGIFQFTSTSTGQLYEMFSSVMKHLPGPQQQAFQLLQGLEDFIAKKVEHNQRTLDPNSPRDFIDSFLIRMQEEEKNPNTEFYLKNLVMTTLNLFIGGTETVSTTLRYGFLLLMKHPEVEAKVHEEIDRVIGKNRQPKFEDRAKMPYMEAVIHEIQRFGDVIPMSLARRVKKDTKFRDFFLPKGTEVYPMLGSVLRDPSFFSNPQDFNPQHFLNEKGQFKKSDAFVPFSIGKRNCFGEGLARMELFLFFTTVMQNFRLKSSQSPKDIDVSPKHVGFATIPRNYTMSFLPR
From the text: (§1) K. Assay for Cytochrome P450 Inhibition
(§2) Cytochrome P450 enzymes are implicated in the phase I metabolism of drugs. The majority of drug-drug interactions are metabolism-based and, moreover, these interactions typically involve inhibition of cytochrome P450s. Six CYP450 enzymes (CYP1A2, CYP2C8, CYP2C9, CYP2C19, CYP2D6 and CYP3A4) appear to be commonly responsible for the metabolism of most drugs and the associated drug-drug interactions. Assays to determine the binding of compounds of the invention to the various metabolically important isoforms of cytochrome P450 metabolizing enzymes are commercially available, for example NoAb BioDiscoveries (Mississaugua, ON, Canada) and Absorption Systems (Exton, Pa., USA). As well, a number of appropriate methods have been described or reviewed in the literature. (White, R. E. Ann. Rev. Pharmacol. Toxicol. 2000, 40, 133-157; Li, A. P. Drug. Disc. Today 2001, 6, 357-366; Turpeinen, M.; Korhonen, L. E. Tolonen, A.; et al. Eur. J. Pharm. Sci, 2006, 29, 130-138.)
(§3) The key aspects of the experimental method were as follows: • 1. […] Assays monitored, via fluorescence detection, the formation of a fluorescent metabolite following incubation of the microsomes with a specific CYP substrate. • 3. Compounds of the present invention were tested in duplicate samples at eight test concentrations using 3-fold serial dilutions (concentration range of 0.0457 to 100 μM). • 4. For each CYP-450 enzyme, a specific inhibitor was tested in duplicate at eight concentrations as a positive control. • 5. The concentration of the inhibitor or test compound that inhibited metabolite formation by 50% (IC50) was calculated by non-linear regression analysis of the % inhibition vs. log concentration (M) curve.

[2] = Pharmacokinetic analysis (oral bioavailability, elimination half-life) in the rat; type: in vivo; settings: oral administration, HPLC-MS
Outline: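 Rat, oral dosing at 8 mg/kg (one compound at 2 mg/kg). Plasma levels by HPLC-MS, giving oral bioavailability and elimination half-life.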

[3] = biological target: T2, CYP2E1 (Homo sapiens, UniProt P05181); test: Cytochrome P450 inhibition, CYP2E1; type: in vitro ADME; settings: read-out: IC50 2E1
T2 construct: purchased BD Gentest, Becton-Dickinson (Supersomes); host or cells: insect cells
From the text: as §1, §2, §3

[4] = biological target: T3, CYP3A4 (Homo sapiens, UniProt P08684); test: Cytochrome P450 inhibition, CYP3A4 (two substrates); type: in vitro ADME
T3 construct: purchased BD Gentest, Becton-Dickinson (Supersomes); host or cells: insect cells
From the text: as §1, §2, §3

[5] = test system: fasted rats; test: Gastric emptying in fasted rat model, standard method E; type: in vivo; settings: for Percent Increase in Gastric Emptying After Oral Administration: average where repeated
Outline: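 Overnight-fasted male Wistar rats (200 g, n=5/group) received a 2 mL 2% methylcellulose meal labelled with 0.05% phenol red by gavage, then oral test article (typically 1–30 mg/kg) at t=0. At 15 min, stomach phenol red was measured colorimetrically at 560 nm; ≥30% increase in emptying vs vehicle deemed significant (ANOVA/Dunnett).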

[6] = CYP3A4, substrate BFC, read-out: IC50 3A4 (BFC)
[7] = CYP3A4, substrate BQ, read-out: IC50 3A4 (BQ)

T2 sequence (P05181 whole entry): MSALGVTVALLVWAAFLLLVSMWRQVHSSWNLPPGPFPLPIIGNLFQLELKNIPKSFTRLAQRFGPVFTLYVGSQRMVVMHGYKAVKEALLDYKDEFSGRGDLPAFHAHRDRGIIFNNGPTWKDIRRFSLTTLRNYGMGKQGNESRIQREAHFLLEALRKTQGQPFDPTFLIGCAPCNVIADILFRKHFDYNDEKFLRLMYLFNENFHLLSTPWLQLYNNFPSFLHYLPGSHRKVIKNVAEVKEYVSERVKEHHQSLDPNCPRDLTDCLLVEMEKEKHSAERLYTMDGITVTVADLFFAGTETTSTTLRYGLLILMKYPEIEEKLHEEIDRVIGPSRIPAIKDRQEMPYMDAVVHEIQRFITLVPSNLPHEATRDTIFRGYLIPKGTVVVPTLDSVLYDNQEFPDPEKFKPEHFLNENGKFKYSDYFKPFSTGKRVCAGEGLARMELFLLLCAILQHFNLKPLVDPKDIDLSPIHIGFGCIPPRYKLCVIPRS
T3 sequence (P08684 whole entry): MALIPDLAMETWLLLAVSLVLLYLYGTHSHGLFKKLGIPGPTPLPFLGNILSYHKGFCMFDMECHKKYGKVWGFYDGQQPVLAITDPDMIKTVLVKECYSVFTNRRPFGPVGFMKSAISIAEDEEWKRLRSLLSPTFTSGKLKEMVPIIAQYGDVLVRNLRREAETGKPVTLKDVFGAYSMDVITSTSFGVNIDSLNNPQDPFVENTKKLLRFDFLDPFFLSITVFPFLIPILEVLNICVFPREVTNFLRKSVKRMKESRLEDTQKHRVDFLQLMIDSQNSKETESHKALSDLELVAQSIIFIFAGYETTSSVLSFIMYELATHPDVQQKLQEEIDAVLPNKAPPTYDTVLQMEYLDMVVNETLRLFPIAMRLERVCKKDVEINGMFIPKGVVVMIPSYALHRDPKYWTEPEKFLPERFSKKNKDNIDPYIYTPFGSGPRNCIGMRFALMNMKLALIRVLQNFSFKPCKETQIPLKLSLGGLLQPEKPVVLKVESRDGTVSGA

Row | SMILES | IC50 [1] [µM] | Elimination Half-life (t1/2, rat, min) ([2]; 8 mg/kg dose) [min] | Oral Bioavailability (rat, % F) ([2]; 8 mg/kg dose) [% F] | IC50 [3] [µM] | IC50 [4, 6] [µM] | IC50 [4, 7] [µM] | Percent Increase in Gastric Emptying After Oral Administration ([5]; dose 1 mg/kg) [%] | Percent Increase in Gastric Emptying After Oral Administration ([5]; dose 3 mg/kg) [%] | Percent Increase in Gastric Emptying After Oral Administration ([5]; dose 10 mg/kg) [%] | half-life ([2]; plasma, 8 mg/kg dose, read-out: Elimination Half-life (t1/2, rat, min)) [min] | gastric emptying rates remained increased ([5]; oral, up to 24 h post-dose) | Elimination Half-life (t1/2, rat, min) ([2]; 2 mg/kg dose (compound 822)) [min] | Oral Bioavailability (rat, % F) ([2]; 2 mg/kg dose (compound 822)) [% F]
1 | CC(C)CC1NC(=O)C(C)N(C)C(=O)C(C2CC2)NCC(C)OC2CCCCC2CCCNC1=O (mixture of isomers) [Compound 825] | > 100 | 101 | 37 | > 100 | 93.4 | 6.7 |  |  |  |  |  |  | 
2 | CC1CNC(C2CC2)C(=O)N(C)C(C)C(=O)NC(Cc2ccc(O)cc2)C(=O)NCCCC2CCCCC2O1 (mixture of isomers) [Compound 826] | > 100 | 77 | 29 | > 100 | 47.5 | 4.5 | 19 | 12 | 30 |  |  |  | 
3 | CC(C)CC1NC(=O)C(C)N(C)C(=O)C(C2CCCCC2)NCC(C)OC2CCCCC2CCCNC1=O (mixture of isomers) [Compound 828] | > 100 |  |  | > 100 | 18.7 | 8.9 |  | 24 |  |  |  |  | 
4 | C[C@@H]1C(=O)N[C@H](Cc2ccc(O)cc2)C(=O)NCCCc2cccc3c2O[C@H](CC3)CN[C@@H](C2CC2)C(=O)N1C [Compound 803] | > 100 | 151 | 9 | > 100 |  | 11.5 |  |  |  |  |  |  | 
5 | CC(C)C[C@H]1NC(=O)[C@@H](C)N(C)C(=O)[C@H](C2CC2)NC[C@@H](C)Oc2ccccc2CC[C@H](C)NC1=O [Compound 807] | > 100 |  | 23 | > 100 | 23.3 | 6.1 | 17 | 31 | 41 | 197 | 18-23% |  | 
6 | C[C@@H]1C(=O)N[C@H](Cc2ccc(O)cc2)C(=O)NCCCc2ccc(F)cc2OCCN[C@@H](C2CC2)C(=O)N1C [Compound 809] | > 100 |  |  | > 100 | 6.61 | 1.53 |  | 5 |  |  |  |  | 
7 | CC(C)C[C@H]1NC(=O)[C@@H](C)N(C)C(=O)[C@H](C2CC2)NCCOc2cc(F)ccc2CCCNC1=O [Compound 810] | > 100 | 116 | 15 | > 100 | 7.42 | 1.08 |  |  |  |  |  |  | 
8 | CC1NC(C2CC2)C(=O)N(C)C(C)C(=O)NC(Cc2ccc(O)cc2)C(=O)NCCCc2ccccc2OC1C (centres unmarked) [Compound 820] | > 100 | 137 | 18 | > 100 | 47.4 | 13.8 | 6 | 20 | 22 |  |  |  | 
9 | CC(C)C[C@H]1NC(=O)[C@@H](C)N(C)C(=O)[C@H](C2CC2)NCCOc2cc(F)ccc2CC[C@H](C)NC1=O [Compound 822] | > 100 |  |  | > 100 | 14.2 | 4.15 |  | 6 |  |  |  | 65 | 51
